Test results taken from ChEMBL document CHEMBL5291721, “A preclinical secondary pharmacology resource illuminates target-adverse drug reaction associations of marketed drugs” (Nat Commun, 2023).

Key:
Adenosine receptor A1 = biological target: T1, Adenosine receptor A1 (Homo sapiens, UniProt P30542)
T1 sequence (P30542 whole entry): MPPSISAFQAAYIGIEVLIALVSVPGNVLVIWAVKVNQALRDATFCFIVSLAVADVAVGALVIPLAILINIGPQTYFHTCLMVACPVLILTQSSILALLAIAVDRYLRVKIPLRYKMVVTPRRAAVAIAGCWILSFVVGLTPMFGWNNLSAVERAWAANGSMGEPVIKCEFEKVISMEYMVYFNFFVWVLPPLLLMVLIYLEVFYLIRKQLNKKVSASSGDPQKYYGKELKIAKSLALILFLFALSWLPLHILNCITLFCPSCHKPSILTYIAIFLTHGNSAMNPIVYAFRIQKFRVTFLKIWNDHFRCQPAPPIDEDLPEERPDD

Adenosine receptor A3 = biological target: T2, Adenosine receptor A3 (Homo sapiens, UniProt P0DMS8)
T2 sequence (P0DMS8 whole entry): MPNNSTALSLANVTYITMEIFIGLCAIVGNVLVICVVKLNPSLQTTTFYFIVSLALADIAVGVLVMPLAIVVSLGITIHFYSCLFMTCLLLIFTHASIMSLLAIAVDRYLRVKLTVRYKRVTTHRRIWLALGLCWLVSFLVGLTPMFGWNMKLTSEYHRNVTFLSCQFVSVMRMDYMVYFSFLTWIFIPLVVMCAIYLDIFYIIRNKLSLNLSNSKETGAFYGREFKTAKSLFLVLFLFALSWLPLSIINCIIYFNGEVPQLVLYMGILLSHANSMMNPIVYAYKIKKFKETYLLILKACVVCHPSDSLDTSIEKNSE

[1] = biological target: T3, Alpha-2A adrenergic receptor (Homo sapiens, UniProt P08913); format: functional, cell-based
T3 sequence (P08913 whole entry): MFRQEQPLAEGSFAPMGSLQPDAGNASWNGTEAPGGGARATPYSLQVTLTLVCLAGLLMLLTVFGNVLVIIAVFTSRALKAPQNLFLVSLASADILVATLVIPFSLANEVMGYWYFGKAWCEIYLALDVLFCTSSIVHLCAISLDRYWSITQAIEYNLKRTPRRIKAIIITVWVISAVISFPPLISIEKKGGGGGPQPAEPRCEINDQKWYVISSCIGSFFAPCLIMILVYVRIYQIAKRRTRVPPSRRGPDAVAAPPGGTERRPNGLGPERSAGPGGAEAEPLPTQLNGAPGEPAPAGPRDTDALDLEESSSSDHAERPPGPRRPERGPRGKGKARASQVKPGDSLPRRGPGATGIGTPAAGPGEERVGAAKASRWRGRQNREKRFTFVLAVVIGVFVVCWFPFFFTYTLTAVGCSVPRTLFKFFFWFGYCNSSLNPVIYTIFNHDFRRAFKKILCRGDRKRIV

Vasopressin V2 receptor = Vasopressin V2 receptor (Homo sapiens, UniProt P30518)
Cannabinoid receptor 1 = Cannabinoid receptor 1 (Homo sapiens, UniProt P21554); format: functional, cell-based
[2] = biological target: T4, 5-hydroxytryptamine receptor 1A (Homo sapiens, UniProt P08908); format: functional, cell-based
T4 sequence (P08908 whole entry): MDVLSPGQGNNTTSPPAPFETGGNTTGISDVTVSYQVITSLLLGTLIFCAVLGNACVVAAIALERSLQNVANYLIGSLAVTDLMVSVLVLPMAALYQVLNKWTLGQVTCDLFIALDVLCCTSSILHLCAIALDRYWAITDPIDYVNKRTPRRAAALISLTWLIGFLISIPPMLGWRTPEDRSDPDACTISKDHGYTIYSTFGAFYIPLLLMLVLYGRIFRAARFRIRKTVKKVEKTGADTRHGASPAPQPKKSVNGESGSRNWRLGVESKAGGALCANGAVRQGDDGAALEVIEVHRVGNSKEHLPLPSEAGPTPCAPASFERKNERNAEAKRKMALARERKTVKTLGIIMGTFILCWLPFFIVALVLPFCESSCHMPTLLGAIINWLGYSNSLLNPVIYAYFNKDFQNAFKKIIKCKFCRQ

Melanocortin receptor 3 = Melanocortin receptor 3 (Homo sapiens, UniProt P41968)
[3] = biological target: 3',5'-cyclic-AMP phosphodiesterase 4D (Homo sapiens, UniProt Q08499); format: functional
Progesterone receptor = biological target: T5, Progesterone receptor (Homo sapiens, UniProt P06401); format: functional
T5 sequence (P06401 whole entry): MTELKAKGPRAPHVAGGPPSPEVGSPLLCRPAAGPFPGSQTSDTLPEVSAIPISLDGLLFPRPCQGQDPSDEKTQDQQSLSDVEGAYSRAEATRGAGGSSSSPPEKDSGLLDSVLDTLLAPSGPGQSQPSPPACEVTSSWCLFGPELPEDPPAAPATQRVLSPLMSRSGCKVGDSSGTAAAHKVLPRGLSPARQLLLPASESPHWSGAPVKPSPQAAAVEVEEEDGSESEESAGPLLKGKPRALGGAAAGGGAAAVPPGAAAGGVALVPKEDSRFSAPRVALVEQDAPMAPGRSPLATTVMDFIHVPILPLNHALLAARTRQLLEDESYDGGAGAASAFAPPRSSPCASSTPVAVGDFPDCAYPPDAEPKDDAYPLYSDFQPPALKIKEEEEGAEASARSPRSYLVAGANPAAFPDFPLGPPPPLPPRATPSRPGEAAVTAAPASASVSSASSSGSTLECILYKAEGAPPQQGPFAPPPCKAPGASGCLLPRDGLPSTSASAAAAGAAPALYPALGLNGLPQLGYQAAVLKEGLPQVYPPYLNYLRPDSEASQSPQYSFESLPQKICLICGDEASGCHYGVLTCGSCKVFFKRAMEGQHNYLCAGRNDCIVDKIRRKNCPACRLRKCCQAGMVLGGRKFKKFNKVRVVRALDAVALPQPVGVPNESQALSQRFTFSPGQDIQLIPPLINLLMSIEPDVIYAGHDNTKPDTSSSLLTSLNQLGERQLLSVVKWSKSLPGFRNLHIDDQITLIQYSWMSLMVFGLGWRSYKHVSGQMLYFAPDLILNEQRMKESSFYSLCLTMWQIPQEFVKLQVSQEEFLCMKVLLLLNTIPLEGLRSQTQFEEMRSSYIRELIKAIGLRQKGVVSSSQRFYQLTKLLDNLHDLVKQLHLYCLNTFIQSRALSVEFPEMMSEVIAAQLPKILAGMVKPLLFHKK

[4] = biological target: Sodium-dependent dopamine transporter (Homo sapiens, UniProt Q01959)
Note: assay procedure not described here.

Chain of 3',5'-cyclic-AMP phosphodiesterase 4D (Q08499 whole entry): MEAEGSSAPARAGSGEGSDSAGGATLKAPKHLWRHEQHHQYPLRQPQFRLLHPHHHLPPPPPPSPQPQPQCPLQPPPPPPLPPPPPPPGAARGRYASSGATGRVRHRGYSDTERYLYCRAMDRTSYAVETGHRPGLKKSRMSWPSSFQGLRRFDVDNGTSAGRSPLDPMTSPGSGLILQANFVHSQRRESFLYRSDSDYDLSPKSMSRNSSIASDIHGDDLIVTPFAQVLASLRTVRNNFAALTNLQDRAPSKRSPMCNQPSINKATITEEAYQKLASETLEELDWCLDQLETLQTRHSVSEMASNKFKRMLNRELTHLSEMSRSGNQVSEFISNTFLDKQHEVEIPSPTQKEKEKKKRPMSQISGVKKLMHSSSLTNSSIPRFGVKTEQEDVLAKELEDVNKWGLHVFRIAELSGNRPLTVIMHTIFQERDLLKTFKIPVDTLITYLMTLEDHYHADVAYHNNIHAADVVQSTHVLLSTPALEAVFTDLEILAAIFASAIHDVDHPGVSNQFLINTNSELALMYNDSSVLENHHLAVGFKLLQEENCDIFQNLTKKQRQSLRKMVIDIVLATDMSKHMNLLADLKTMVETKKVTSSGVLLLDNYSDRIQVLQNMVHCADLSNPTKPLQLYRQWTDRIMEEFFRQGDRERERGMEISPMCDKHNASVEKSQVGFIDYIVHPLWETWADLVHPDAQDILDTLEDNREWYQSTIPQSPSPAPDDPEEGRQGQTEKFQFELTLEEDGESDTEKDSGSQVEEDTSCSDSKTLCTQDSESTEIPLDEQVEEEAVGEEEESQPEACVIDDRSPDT
Chain of Vasopressin V2 receptor (P30518 whole entry): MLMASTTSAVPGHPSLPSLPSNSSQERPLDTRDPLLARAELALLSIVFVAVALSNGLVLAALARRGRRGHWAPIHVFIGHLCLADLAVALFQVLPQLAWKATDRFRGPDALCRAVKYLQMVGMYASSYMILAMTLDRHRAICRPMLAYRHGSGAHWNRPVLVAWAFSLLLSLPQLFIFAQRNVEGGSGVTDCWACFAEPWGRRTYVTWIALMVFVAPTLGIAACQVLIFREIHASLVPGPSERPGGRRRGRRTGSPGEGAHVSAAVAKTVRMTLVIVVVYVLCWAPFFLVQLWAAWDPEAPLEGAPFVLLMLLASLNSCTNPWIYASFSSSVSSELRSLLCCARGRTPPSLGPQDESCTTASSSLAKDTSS
Chain of Melanocortin receptor 3 (P41968 whole entry): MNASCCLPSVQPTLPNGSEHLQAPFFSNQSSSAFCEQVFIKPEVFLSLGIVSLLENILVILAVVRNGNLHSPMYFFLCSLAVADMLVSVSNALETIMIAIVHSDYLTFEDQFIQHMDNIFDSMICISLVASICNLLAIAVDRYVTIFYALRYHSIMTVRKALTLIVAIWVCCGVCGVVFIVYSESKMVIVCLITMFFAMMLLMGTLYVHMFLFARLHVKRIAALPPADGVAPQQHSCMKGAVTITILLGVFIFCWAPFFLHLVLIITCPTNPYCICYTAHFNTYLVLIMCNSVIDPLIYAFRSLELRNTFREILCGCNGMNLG
Chain of Sodium-dependent dopamine transporter (Q01959 whole entry): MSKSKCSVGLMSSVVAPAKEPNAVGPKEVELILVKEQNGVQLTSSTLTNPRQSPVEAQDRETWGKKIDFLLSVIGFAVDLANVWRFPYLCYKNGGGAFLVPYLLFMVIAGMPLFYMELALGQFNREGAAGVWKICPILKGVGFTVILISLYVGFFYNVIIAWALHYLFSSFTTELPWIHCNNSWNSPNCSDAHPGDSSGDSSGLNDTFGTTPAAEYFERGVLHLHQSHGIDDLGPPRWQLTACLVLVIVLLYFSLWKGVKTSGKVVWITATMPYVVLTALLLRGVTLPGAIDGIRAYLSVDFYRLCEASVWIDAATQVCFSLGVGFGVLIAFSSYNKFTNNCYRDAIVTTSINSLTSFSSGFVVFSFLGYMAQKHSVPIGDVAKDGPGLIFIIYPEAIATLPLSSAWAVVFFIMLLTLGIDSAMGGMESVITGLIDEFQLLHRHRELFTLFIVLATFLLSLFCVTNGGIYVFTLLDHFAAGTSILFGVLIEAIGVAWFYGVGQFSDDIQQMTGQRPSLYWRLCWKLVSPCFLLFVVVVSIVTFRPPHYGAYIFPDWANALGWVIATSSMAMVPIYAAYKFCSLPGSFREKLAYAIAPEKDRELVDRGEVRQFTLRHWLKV
Chain of Cannabinoid receptor 1 (P21554 whole entry): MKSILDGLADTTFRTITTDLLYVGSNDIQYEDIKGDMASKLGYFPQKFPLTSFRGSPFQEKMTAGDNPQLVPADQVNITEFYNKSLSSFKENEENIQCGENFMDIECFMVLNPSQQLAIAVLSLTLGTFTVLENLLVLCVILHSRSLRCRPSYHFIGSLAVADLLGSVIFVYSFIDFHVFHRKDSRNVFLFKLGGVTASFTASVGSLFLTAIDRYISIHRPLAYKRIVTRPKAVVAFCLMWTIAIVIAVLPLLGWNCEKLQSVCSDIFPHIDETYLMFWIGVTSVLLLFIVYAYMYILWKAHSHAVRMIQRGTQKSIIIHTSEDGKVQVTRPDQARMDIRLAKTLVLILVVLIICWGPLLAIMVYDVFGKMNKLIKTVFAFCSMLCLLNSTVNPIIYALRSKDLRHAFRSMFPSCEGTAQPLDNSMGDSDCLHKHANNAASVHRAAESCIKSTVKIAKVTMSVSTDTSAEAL

SMILES	AC50 (Adenosine receptor A1) [µM]	AC50 (Adenosine receptor A3) [µM]	AC50 [1] [µM]	AC50 (Vasopressin V2 receptor) [µM]	AC50 (Cannabinoid receptor 1) [µM]	AC50 [2] [µM]	AC50 (Melanocortin receptor 3) [µM]	AC50 [3] [µM]	AC50 (Progesterone receptor) [µM]	AC50 [4] [µM]
Nc1ccc(C(=O)O)c(O)c1 [AMINOSALICYLIC ACID]	> 30	> 30	> 30	> 30	> 30	> 30	> 30	> 30	> 30	> 30
CS(=O)(=O)OCCCCOS(C)(=O)=O [BUSULFAN]	> 30	> 30	> 30	> 30	> 30	> 30	> 30	> 30	> 30	> 30
CCCCC1(CC)C(=O)NC(=O)NC1=O [BUTETHAL]	> 30	> 30	> 30	> 30	> 30	> 30	> 30	> 30	> 30	> 30
C=CC1=C(C(=O)O)N2C(=O)[C@@H](NC(=O)/C(=N\OCC(=O)O)c3csc(N)n3)[C@H]2SC1 [CEFIXIME]	> 30	> 30	> 30	> 30	> 30	> 30	> 30	> 30	> 30	> 30
CO[C@@]1(NC(=O)Cc2cccs2)C(=O)N2C(C(=O)O)=C(COC(N)=O)CS[C@@H]21 [CEFOXITIN]	> 30	> 30	> 30	> 30	> 30	> 30	> 30	> 30	> 30	> 30
CCN(CC)CCOC(=O)c1ccc(N)cc1Cl [CHLOROPROCAINE]	> 30	> 30	> 30	> 30	> 30	> 30	> 30	> 30	> 30	> 30
COCCOC(=O)C1=C(C)NC(C)=C(C(=O)OC/C=C/c2ccccc2)C1c1cccc([N+](=O)[O-])c1 (centres undefined) [CILNIDIPINE]	> 30	4.8	–	> 30	> 30	> 30	> 30	8.2	> 30	> 30
C[C@@H]1C[C@H]2[C@@H]3C[C@H](F)C4=CC(=O)C=C[C@]4(C)[C@@]3(F)[C@@H](O)C[C@]2(C)[C@H]1C(=O)CO [DIFLUCORTOLONE]	–	> 30	–	–	–	–	> 30	> 30	0.052	> 30
O=C(O)c1ccccc1OP(=O)(O)O [FOSFOSAL]	> 30	> 30	> 30	> 30	> 30	> 30	> 30	> 30	> 30	> 30
